According to the supplement of paper PMC10307832:

Columns and labels:
Assay in all cases: relative viability (nuclei count vs DMSO), 5 days (fraction); higher = more cells survive
[1] = compound: Cc1ccc(C(=O)N(CCCN)[C@@H](c2nc3cc(Cl)ccc3c(=O)n2Cc2ccccc2)C(C)C)cc1 [Ispinesib] + COc1cccc2cc(-c3nc([C@H]4CC[C@H](C(=O)O)CC4)n4ncnc(N)c34)[nH]c12 [OSI-027] (partner 0.5 µM)
How it was run: (§1)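 Nuclei were stained with Hoechst during a one-step fixation (final 0.05% Triton X-100, 1% formaldehyde, 1 ug/ml Hoechst) carried out 5 days after dosing, then counted on 4× images. The cells, lung cancer lines in 1536-well plates, had been dosed by pin tool the day after seeding with one drug alone or a fixed anchor-drug dose plus five library-drug doses (not always all listed) in √10 steps. Relative viability is the nuclei count in treated wells divided by that in vehicle wells, and each value is the median of duplicate plates.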

[2] = compound: C[C@]1(O)C[C@@H](c2nc(-c3ccc4ccc(-c5ccccc5)nc4c3)c3c(N)nccn32)C1 [Linsitinib] + CS(=O)(=O)CCNCc1ccc(-c2ccc3ncnc(Nc4ccc(OCc5cccc(F)c5)c(Cl)c4)c3c2)o1 [Lapatinib] (partner 2 µM)
How it was run: as §1

[3] = compound: Cc1ccc(C(=O)N(CCCN)[C@@H](c2nc3cc(Cl)ccc3c(=O)n2Cc2ccccc2)C(C)C)cc1 [Ispinesib] + N=C(N)NC(=N)NCCc1ccccc1 [Phenformin] (partner 250 µM)
How it was run: as §1

[4] = compound: C[C@]1(O)C[C@@H](c2nc(-c3ccc4ccc(-c5ccccc5)nc4c3)c3c(N)nccn32)C1 [Linsitinib] + Nc1nc2[nH]cc(CCc3ccc(C(=O)N[C@@H](CCC(=O)O)C(=O)O)cc3)c2c(=O)[nH]1 [Pemetrexed] (partner 0.2 µM)
How it was run: as §1

| Cell Line | relative viability ([1]; first compound 0.001 µM) | relative viability ([1]; first compound 0.003162 µM) | relative viability ([1]; first compound 0.01 µM) | relative viability ([1]; first compound 0.03162 µM) | relative viability ([1]; first compound 0.1 µM) | relative viability ([2]; first compound 0.01 µM) | relative viability ([2]; first compound 0.03162 µM) | relative viability ([2]; first compound 0.1 µM) | relative viability ([2]; first compound 0.3162 µM) | relative viability ([2]; first compound 1 µM) | relative viability ([3]; first compound 0.001 µM) | relative viability ([3]; first compound 0.003162 µM) | relative viability ([3]; first compound 0.01 µM) | relative viability ([3]; first compound 0.03162 µM) | relative viability ([3]; first compound 0.1 µM) | relative viability ([4]; first compound 0.01 µM) | relative viability ([4]; first compound 0.03162 µM) | relative viability ([4]; first compound 0.1 µM) | relative viability ([4]; first compound 0.3162 µM) | relative viability ([4]; first compound 1 µM) |
| --- | --- | --- | --- | --- | --- | --- | --- | --- | --- | --- | --- | --- | --- | --- | --- | --- | --- | --- | --- | --- |
| NCI-H1437 | 1.1 | 0.881 | 1.16 | 0.938 | 0.263 | 0.758 | 0.787 | 0.811 | 0.551 | 0.715 | 0.326 | 0.335 | 0.371 | 0.251 | 0.189 | 0.317 | 0.247 | 0.307 | 0.288 | 0.275 |
| A-427 | 0.508 | 0.449 | 0.571 | 0.155 | 0.181 | 1.02 | 0.723 | 1.06 |  | 1.08 | 0.377 | 0.415 | 0.333 | 0.168 | 0.158 | 0.951 | 1.03 | 0.986 |  | 0.866 |
| HCC-366 | 0.944 | 1.01 | 1.33 | 0.204 | 0.0402 | 1.14 | 0.8 | 1.07 | 0.326 | 0.874 | 0.635 | 0.633 | 0.657 | 0.692 | 0.0242 | 0.138 | 0.0729 | 0.156 | 0.119 | 0.127 |
| BEN | 0.312 | 0.306 | 0.341 | 0.38 | 0.202 | 0.84 | 0.685 | 0.563 |  | 0.58 | 0.243 | 0.27 | 0.252 | 0.27 | 0.203 | 0.599 | 0.723 | 0.704 | 0.562 | 0.63 |
| NCI-H2347 | 0.317 | 0.421 | 0.456 | 0.368 | 0.437 | 0.821 | 0.998 | 0.969 | 0.461 | 0.772 | 0.404 | 0.547 | 0.414 | 0.553 | 0.386 | 0.418 | 0.445 | 0.409 | 0.399 | 0.416 |
| NCI-H650 | 0.571 | 0.624 | 0.585 | 0.381 | 0.23 | 0.701 | 0.926 | 0.871 |  | 0.646 | 0.451 | 0.445 | 0.476 | 0.312 | 0.18 | 0.878 | 1.05 | 0.923 |  | 0.739 |
| NCI-H1975 | 0.781 | 0.819 | 0.991 | 0.258 | 0.127 | 0.825 | 0.82 | 0.866 | 1.04 | 0.684 | 0.448 | 0.412 | 0.458 | 0.164 | 0.11 | 0.287 | 0.239 | 0.293 | 0.287 | 0.289 |
| NCI-H2126 | 0.757 | 0.894 | 0.674 | 0.664 | 0.63 | 0.774 | 0.754 | 0.704 | 0.392 | 0.455 | 0.516 | 0.531 | 0.533 | 0.433 | 0.263 | 0.707 | 0.67 | 0.779 | 0.511 | 0.598 |
| NCI-H2087 | 0.551 | 0.643 | 0.535 | 0.206 | 0.102 | 0.886 | 1.26 | 1.13 | 0.349 | 0.626 | 0.492 | 0.473 | 0.441 | 0.32 | 0.134 | 0.559 | 0.591 | 0.571 | 0.555 | 0.646 |
